# Assay results taken from patent US12661388B2, “Assessing and treating acute decompensated heart failure” (Mayo Foundation for Medical Education and Research, priority 2020, dated 2026).
# Assays:
# human GC-A = molecular target: T1, human GC-A (Homo sapiens, UniProt P16066); experiment: cGMP generation in HEK293 cells transfected with human GC-A receptor; format: cell-based; settings: vs vehicle; for cGMP generation: HEK293 cells overexpressing human GC-A, 10^-8, 10^-7, 10^-6 M, 10 minutes
# T1 construct: host or cells: HEK293
# T1 sequence (P16066 33-1061): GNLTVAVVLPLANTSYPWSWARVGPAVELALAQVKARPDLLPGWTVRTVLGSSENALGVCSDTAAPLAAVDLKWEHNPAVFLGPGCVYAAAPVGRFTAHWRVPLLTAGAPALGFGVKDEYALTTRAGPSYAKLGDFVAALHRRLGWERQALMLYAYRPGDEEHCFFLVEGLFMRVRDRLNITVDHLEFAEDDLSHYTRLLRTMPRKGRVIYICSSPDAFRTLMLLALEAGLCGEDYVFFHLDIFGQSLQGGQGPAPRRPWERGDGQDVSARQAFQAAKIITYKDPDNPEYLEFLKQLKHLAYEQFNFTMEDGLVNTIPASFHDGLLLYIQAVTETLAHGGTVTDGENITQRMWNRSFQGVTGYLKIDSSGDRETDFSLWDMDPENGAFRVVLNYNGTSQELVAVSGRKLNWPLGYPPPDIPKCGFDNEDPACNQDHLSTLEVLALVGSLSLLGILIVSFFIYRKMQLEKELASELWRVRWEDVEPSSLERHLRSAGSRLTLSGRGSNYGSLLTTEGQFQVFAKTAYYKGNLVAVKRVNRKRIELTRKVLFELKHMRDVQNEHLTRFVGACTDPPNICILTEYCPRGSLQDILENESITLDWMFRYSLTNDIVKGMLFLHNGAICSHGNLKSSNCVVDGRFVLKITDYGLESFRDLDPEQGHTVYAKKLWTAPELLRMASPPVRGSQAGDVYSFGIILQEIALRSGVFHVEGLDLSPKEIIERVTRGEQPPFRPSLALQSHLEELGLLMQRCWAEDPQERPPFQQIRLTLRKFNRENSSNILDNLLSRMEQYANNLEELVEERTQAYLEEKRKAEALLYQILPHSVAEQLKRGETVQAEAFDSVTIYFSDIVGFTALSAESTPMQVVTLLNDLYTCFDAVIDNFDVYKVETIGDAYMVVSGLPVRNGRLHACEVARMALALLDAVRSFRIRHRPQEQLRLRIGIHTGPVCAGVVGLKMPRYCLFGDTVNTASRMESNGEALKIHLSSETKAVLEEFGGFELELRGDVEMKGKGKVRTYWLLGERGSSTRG
# Source text: (§1) cGMP Generation in HEK293 Cells Transfected with Human GC-B or GC-A Receptor In Vitro: HEK293 cells were stably transfected with either human GC-B or GC-A (cDNA clones from Origene, Rockville, MD) using LIPOFECTAMINE® (Invitrogen, Grand Island, NY). Receptors overexpression was verified with immunofluorescence and western blotting. GC-B/-A transfected HEK293 cells were maintained in Dulbecco's modified Eagle's medium supplemented with 10% fetal bovine serum, 100 U/mL penicillin, 100 U/mL streptomycin, and 250 μg/mL G418. Cells were seeded in 48-well plates and cultured overnight to reach 80-90% confluency. The treatment buffer that includes, Hank's Balanced Salt Solution (HBSS) including 0.1% BSA, 2 mM HEPES and 0.5 mM 3-isobutyl-1-methylzanthine (IBMX—a non-specific phosphodiesterase inhibitor, Sigma, St. Louis, MO), was used in all experiments. HEK293 cells received treatment buffer (vehicle) only was used as a negative control and ANP (10^−8M) was used as a positive control in HEK293 GC-A cells and CNP (10^−8 M) was used as a positive control in HEK293 GC-B cells. Concentrations of CD-NP, CRRL-404, CRRL-405, CRRL-407 or CRRL=408 (10^−8, 10^−7, and 10^−6 M) in HBSS were incubated with HEK293 transfected GC-B or GC-A cells for 10 minutes. After treatment, all cells were washed with phosphate buffered solution (PBS) once and lysed with 0.1M HCl. Intracellular cGMP was measured in the lysate using a commercial cGMP ELISA kit (Enzo Life Sciences, Farmingdale, NY) as instructed by the manufacturer.
# (§2) cGMP Assay: The ELISA plate was coated in neutralizing solution (50 μL), prior to addition of samples and standards. Cell lysates (100 μL) and standards (100 μL), in 0.1M HCL, were incubated with cGMP conjugate (50 μL) and cGMP antibody (50 μL) at room temperature for 2 hours, 500 rpm. The plates were washed 4 times and 200 μL of pNPP substrate was added in each well and incubated for 1 hour at room temperature. The reaction was stopped by adding stop solution and absorbance was read at 405 nm and corrected for plate imperfections at 570 nm using SpectramaxM2. Standard curve was generated using the Softmaxpro software and unknown concentrations were extrapolated based on the standard curve. Samples exceeding the standard curve were diluted as needed in 0.1M HCl and corresponding dilution factors were applied to extrapolate final concentrations. The standard curve range is from 0.8 pmol/mL-500 pmol/mL. The % CV at EC50 is 6.6%.
# human GC-B = molecular target: T2, human GC-B (Homo sapiens, UniProt P20594); experiment: cGMP generation in HEK293 cells transfected with human GC-B receptor; format: cell-based; settings: vs vehicle; for cGMP generation: HEK293 cells overexpressing human GC-B, 10^-8, 10^-7, 10^-6 M, 10 minutes
# T2 construct: host or cells: HEK293
# T2 sequence (P20594 23-1047): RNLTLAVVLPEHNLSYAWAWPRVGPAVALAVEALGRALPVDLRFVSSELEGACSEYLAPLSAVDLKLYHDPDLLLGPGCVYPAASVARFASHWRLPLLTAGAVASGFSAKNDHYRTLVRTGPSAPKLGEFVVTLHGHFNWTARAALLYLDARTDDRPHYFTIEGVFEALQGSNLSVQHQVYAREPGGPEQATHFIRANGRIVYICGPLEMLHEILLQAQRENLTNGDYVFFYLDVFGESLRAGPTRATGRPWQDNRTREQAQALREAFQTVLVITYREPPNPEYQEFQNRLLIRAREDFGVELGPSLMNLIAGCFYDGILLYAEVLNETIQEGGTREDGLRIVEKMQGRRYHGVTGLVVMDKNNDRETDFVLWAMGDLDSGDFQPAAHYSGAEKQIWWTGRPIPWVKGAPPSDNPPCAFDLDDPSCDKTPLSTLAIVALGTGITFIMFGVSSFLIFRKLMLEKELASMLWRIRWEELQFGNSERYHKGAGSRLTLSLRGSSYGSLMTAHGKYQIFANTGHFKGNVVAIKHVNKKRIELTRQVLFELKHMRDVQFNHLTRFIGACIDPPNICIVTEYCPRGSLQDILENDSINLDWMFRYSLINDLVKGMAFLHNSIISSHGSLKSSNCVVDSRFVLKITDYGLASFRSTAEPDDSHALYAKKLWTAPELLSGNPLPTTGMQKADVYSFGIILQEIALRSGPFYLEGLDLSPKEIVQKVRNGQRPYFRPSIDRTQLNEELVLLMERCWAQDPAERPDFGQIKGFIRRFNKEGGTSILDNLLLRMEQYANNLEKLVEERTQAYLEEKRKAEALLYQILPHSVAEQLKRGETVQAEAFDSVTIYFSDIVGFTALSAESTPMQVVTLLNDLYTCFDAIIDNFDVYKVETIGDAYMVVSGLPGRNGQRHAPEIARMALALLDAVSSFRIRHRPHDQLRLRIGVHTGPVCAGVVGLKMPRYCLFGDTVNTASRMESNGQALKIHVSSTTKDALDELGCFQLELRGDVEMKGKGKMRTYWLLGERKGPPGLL
# Source text: as §1, §2
# normal rats = experiment: Acute IV infusion in vivo study, plasma and urinary cGMP; design: species or system rat; settings: IV infusion 2.12 μg/kg/min, vs vehicle (saline)
# Protocol: Acute IV Infusion In Vivo Study: the cGMP generating actions of 2.12 μg/kg/minute dose CRRL-408 or vehicle (0.9% normal saline) [n=4/group] was investigated in normal rats (approximately 2 months old; 200-250 grams; Envigo, East Millstone, NJ). Studies were performed in accordance with the Animal Welfare Act and with approval of the Mayo Clinic Institutional Animal Care and Use Committee.
# Rats were anesthetized with isoflurane (2-3% in oxygen) and were subjected to vessel and bladder cannulation for peptide/vehicle infusion, blood sampling and urine collection. A polyethylene (PE)-50 tube catheter was placed into the jugular vein for CRRL-408/vehicle intravenous (IV) infusion. The carotid artery was cannulated with a PE-50 tube catheter for blood sampling. The bladder was accessed and cannulated with a PE-50 tube catheter for passive urine collection. After completion of the above procedural set up, a 30 minute equilibration period was performed that included continuous IV saline infusion. After the 30 minute equilibration period the saline infusion was replaced by a continuous IV infusion (75 min including a 15 minute lead-in period) of 2.12 μg/kg/minute dose of CRRL-408 or vehicle. The infusion rate was weight adjusted and calculated as follows: rat weight (grams)*0.7/60/100 mL/minute. […]
# [1] = system: human renal fibroblasts (HRFs); experiment: cGMP generation in human primary renal fibroblasts; format: cell-based; settings: 10^-8, 10^-7, 10^-6 M, 10 minutes, vs vehicle
# Protocol: (§3) cGMP Generation in Human Primary Renal Cells: Human primary renal fibroblasts (HRFs, Cell Biologics, Chicago, IL) and human renal proximal tubular epithelial cells (HRPTCs, ScienCell Research Laboratories, Carlsbad, CA) were maintained and sub-cultured according to the manufacturer's protocols. Briefly, the cells were grown in 6-well plates until 80% confluency and were then treated with treatment buffer (vehicle; HBSS including 0.1% BSA, 2 mM HEPES and 0.5 mM IBMX) alone or with concentrations of CRRL-408 (10^−8, 10^−7 and 10^−6 M) for 10 minutes. Cells were washed with PBS once and lysed with 0.1M HCl. Intracellular cGMP was measured in the lysate using a commercial cGMP ELISA kit (Enzo Life Sciences, Farmingdale, NY) as instructed by the manufacturer described below.
# (§4) cGMP Assay: The ELISA plate was coated in neutralizing solution (50 μL), prior to addition of samples and standards. Cell lysates (100 μL) and standards (100 μL), in 0.1M HCL, were incubated with cGMP conjugate (50 μL) and cGMP antibody (50 μL) at room temperature for 2 hours, 500 rpm. The plates were washed 4 times and 200 μL of pNPP substrate was added in each well and incubated for 1 hour at room temperature. The reaction was stopped by adding stop solution and absorbance was read at 405 nm and corrected for plate imperfections at 570 nm using SpectramaxM2. […]
# [2] = system: human renal proximal tubular cells (HRPTCs); experiment: cGMP generation in human renal proximal tubular epithelial cells; format: cell-based; settings: 10^-8, 10^-7, 10^-6 M, 10 minutes, vs vehicle
# Protocol: as §3, §4
Substance,cGMP generation (human GC-A),cGMP generation (human GC-B),further results
KKGLSKGCFGLKLDRIGSMSGLGCPSLRDPRPNAPSTSA [CRRL-404],stimulated cGMP generation,stimulated cGMP generation,
"GLSKGCFGLKLDRIGSMSGLGCPSLRDPRPNAP STSA [CD-NP, reference compound]",stimulated cGMP generation,stimulated cGMP generation,
KYKGANKKGLSKGCFGLKLDRIGSMSGLGCPSLRDPRPNAPSTSA [CRRL-408],stimulated cGMP generation,stimulated cGMP generation,plasma cGMP (normal rats): significantly elevated; urinary cGMP (normal rats): significantly elevated; intracellular cGMP levels [1]: increased intracellular cGMP levels in a dose dependent manner; intracellular cGMP levels [2]: increased intracellular cGMP levels in a dose dependent manner
ANP: natriuretic peptide used as a positive control in HEK293 GC-A cells [reference compound],,,"cGMP generation (positive control) (human GC-A; HEK293 GC-A cells, 10^-8 M): significant cGMP generation response"
ANKKGLSKGCFGLKLDRIGSMSGLGCPSLRDPRPNAPSTSA [CRRL-405],stimulated cGMP generation,stimulated cGMP generation,
KGANKKGLSKGCFGLKLDRIGSMSGLGCPSLRDPRPNAPSTSA [CRRL-407],stimulated cGMP generation,stimulated cGMP generation,
"CNP: C-type natriuretic peptide, used as a positive control in HEK293 GC-B cells [reference compound]",,,"cGMP generation (positive control) (human GC-B; HEK293 GC-B cells, 10^-8 M): significant cGMP generation response"
